# From patent publication US20100317690A1, “TREATMENT OF PROTEIN FOLDING DISORDERS” (SUMMIT CORPORATION PLC, priority 2007, published 2010)
# Target: T1, Jack bean α-D-mannosidase (Canavalia ensiformis, UniProt C0HJB3)
# T1 construct: purchased Sigma M7257
# T1 sequence (C0HJB3 1-981): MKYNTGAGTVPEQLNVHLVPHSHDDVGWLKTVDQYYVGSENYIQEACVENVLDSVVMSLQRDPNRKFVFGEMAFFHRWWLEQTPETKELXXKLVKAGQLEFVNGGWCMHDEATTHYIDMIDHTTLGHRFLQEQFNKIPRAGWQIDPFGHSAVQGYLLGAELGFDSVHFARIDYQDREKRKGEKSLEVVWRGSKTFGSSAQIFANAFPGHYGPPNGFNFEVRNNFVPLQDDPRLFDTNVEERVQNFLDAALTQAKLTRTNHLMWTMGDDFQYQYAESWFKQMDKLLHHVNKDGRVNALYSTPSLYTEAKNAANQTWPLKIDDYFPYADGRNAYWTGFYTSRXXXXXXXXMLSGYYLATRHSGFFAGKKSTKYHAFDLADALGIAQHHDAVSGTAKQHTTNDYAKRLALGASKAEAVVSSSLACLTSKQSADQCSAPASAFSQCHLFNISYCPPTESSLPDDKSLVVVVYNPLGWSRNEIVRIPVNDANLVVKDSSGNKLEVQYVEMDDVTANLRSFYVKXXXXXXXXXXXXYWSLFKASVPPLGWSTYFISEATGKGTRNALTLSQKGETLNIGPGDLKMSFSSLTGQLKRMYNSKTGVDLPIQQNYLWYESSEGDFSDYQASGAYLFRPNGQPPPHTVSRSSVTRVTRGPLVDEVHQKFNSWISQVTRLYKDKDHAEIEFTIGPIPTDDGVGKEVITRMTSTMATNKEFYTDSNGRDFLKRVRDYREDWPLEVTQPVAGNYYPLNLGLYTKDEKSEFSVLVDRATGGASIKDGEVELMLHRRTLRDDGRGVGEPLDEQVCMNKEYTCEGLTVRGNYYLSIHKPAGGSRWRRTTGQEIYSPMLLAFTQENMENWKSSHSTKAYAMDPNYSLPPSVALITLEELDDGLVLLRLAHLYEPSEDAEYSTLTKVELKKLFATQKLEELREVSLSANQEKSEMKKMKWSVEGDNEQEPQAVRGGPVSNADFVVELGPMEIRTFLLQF
# Assay: Jack bean α-D-mannosidase activity assay (PNP-α-D-mannopyranoside substrate)
# Assay type: biochemical
# Description: Fresh solutions had been prepared a day or so earlier of 0.2M Mcllvane buffer at pH 4.5 and 5 mM PNP-α-D-mannopyranoside (Sigma, N2127) in pH 4.5 buffer. Also prepared was a dilution of Jack bean α-D-mannosidase enzyme (Sigma, M7257, 22 Units/mg, 6.2 mg/ml.) at 0.6 Units/ml in pH 4.5 buffer.
# The incubation mixture consisted of 10 μl enzyme solution, 10 μl of 1 mg/ml aqueous inhibitor solution and 50 μl of 5 mM substrate made up in buffer at the optimum pH for the enzyme. The reactions were stopped by addition of 70 μl 0.4M glycine (pH 10.4) during the exponential phase of the reaction, which had been determined at the beginning using uninhibited assays in which water replaced inhibitor. Final absorbances were read at 405 nm using a Versamax microplate reader (Molecular Devices). Assays were carried out in triplicate, and the values given are means of the three replicates per assay. Results were expressed as a percentage of uninhibited assays in which water replaced inhibitor.
structure (smiles),measurement,setting,value
O[C@H]1[C@H]2[C@H](O)CCCN2C[C@H]1O [swainsonine],inhibition of the promoted activity,activity promoted by imino sugars with a mannose configuration,total inhibition
same,promotion of the mannosidase,any concentration tested,does not cause promotion
same,inhibition,"swainsonine alone, or mixed with an equal concentration of the selected stimulating compound",100%
